According to ChEMBL document CHEMBL5614443, “Hybrids of 3-Hydroxypyridin-4(1H)-ones and Long-Chain 4-Aminoquinolines as Potent Biofilm Inhibitors of Pseudomonas aeruginosa Potentiate Tobramycin and Polymyxin B Activity” (J Med Chem, 2024):
The source made the active and inactive calls. No cut-off for these calls is given here.

Experiments:
Pseudomonas aeruginosa [1] = experiment: Antibacterial activity against Pseudomonas aeruginosa PAO1 assessed as inhibition of bacterial growth incubated for 24 hrs by CLSI protocol based method; format: functional
Pseudomonas aeruginosa [2] = experiment: Antibiofilm activity against Pseudomonas aeruginosa harboring pvds-deficient mutant assessed as inhibition of biofilm formation at 0.1 to 20 uM incubated for 24 hrs by crystal violet staining based analysis; format: functional, organism-based; conditions: dose 0.1-20 µM
Pseudomonas aeruginosa [3] = experiment: Antibacterial activity against Pseudomonas aeruginosa clinical isolate 1129 assessed as inhibition of bacterial growth incubated for 24 hrs by CLSI protocol based method; format: functional, organism-based
Pseudomonas aeruginosa [4] = experiment: Antibacterial activity against Pseudomonas aeruginosa clinical isolate 0807 assessed as inhibition of bacterial growth incubated for 24 hrs by CLSI protocol based method; format: functional, organism-based
Pseudomonas aeruginosa [5] = experiment: Antibacterial activity against Pseudomonas aeruginosa clinical isolate 0815 assessed as inhibition of bacterial growth incubated for 24 hrs by CLSI protocol based method; format: functional, organism-based
Pseudomonas aeruginosa [6] = experiment: Antibacterial activity against Pseudomonas aeruginosa clinical isolate 0808 assessed as inhibition of bacterial growth incubated for 24 hrs by CLSI protocol based method; format: functional, organism-based
Pseudomonas aeruginosa [7] = experiment: Antibacterial activity against Pseudomonas aeruginosa clinical isolate 1121 assessed as inhibition of bacterial growth incubated for 24 hrs by CLSI protocol based method; format: functional, organism-based
Pseudomonas aeruginosa [8] = experiment: Antivirulence activity in Pseudomonas aeruginosa clinical isolate 1167 assessed as reduction in elastase production at 10 uM incubated for 24 hrs by elastin-congo red dye based absorbance assay; format: functional, organism-based
Pseudomonas aeruginosa [9] = experiment: Antivirulence activity in Pseudomonas aeruginosa clinical isolate 1121 assessed as reduction in elastase production at 10 uM incubated for 24 hrs by elastin-congo red dye based absorbance assay; format: functional, organism-based
Pseudomonas aeruginosa [10] = experiment: Antivirulence activity in Pseudomonas aeruginosa clinical isolate 0815 assessed as reduction in pyocyanin production at 10 uM incubated for 24 hrs by absorbance based analysis; format: functional, organism-based
Pseudomonas aeruginosa [11] = experiment: Antibiofilm activity against Pseudomonas aeruginosa clinical isolate 1167 assessed as reduction in biofilm content at 10 uM incubated for 24 hrs by crystal violet staining based analysis; format: functional, organism-based
Pseudomonas aeruginosa [12] = experiment: Synergistic antibacterial activity against Pseudomonas aeruginosa PAO1 assessed as reduction in cell viability at 10 to 50 uM incubated for 24 hrs in the presence of 1/4 MIC of tobramycin by LB agar plate method; format: functional, organism-based; conditions: dose 10-50 µM
Pseudomonas aeruginosa [13] = experiment: Synergistic antibacterial activity against Pseudomonas aeruginosa PAO1 assessed as reduction in cell viability at 10 to 50 uM incubated for 24 hrs in the presence of 1/4 MIC of polymyxin B by LB agar plate method; format: functional, organism-based; conditions: dose 10-50 µM
Pseudomonas aeruginosa [14] = experiment: Antibacterial activity against Pseudomonas aeruginosa PAO1 assessed as bacterial survival rate at 10 to 50 uM incubated for 24 hrs by LB agar plate method relative to control; format: functional; conditions: dose 10-50 µM
Pseudomonas aeruginosa [15] = experiment: Synergistic antibacterial activity against Pseudomonas aeruginosa PAO1 assessed as fold reduction in bacterial survival rate incubated for 24 hrs in presence of azithromycin by LB agar plate method; format: functional
Pseudomonas aeruginosa [16] = experiment: Synergistic antibacterial activity against Pseudomonas aeruginosa clinical isolate 1167 assessed as reduction in bacterial viability at 10 to 50 uM incubated for 24 hrs in presence of 1/2 MIC of tobramycin by LB agar plate method; format: functional, organism-based; conditions: dose 10-50 µM
Pseudomonas aeruginosa [17] = experiment: Synergistic antibacterial activity against Pseudomonas aeruginosa clinical isolate 1121 assessed as reduction in bacterial viability at 10 to 50 uM incubated for 24 hrs in presence of 1/4 MIC of tobramycin by LB agar plate method; format: functional, organism-based; conditions: dose 10-50 µM
Pseudomonas aeruginosa [18] = experiment: Synergistic antibacterial activity against Pseudomonas aeruginosa clinical isolate 0815 assessed as reduction in bacterial viability at 10 to 50 uM incubated for 24 hrs in presence of 1/2 MIC of polymyxin B by LB agar plate method; format: functional, organism-based; conditions: dose 10-50 µM
Pseudomonas aeruginosa [19] = experiment: Synergistic antibacterial activity against Pseudomonas aeruginosa clinical isolate 0815 assessed as reduction in bacterial viability at 10 to 50 uM incubated for 24 hrs in presence of 1/8 MIC of polymyxin B by LB agar plate method; format: functional, organism-based; conditions: dose 10-50 µM
Pseudomonas aeruginosa [20] = experiment: Synergistic antibacterial activity against Pseudomonas aeruginosa clinical isolate 1167 assessed as reduction in bacterial viability at 10 to 50 uM incubated for 24 hrs in presence of 1/8 MIC of polymyxin B by LB agar plate method; format: functional, organism-based; conditions: dose 10-50 µM
Pseudomonas aeruginosa [21] = experiment: Synergistic antibacterial activity against Pseudomonas aeruginosa clinical isolate 1121 assessed as reduction in bacterial viability at 10 to 50 uM incubated for 24 hrs in presence of 1/4 MIC of polymyxin B by LB agar plate method; format: functional, organism-based; conditions: dose 10-50 µM
Pseudomonas aeruginosa [22] = experiment: Synergistic antibacterial activity against Pseudomonas aeruginosa clinical isolate 1121 assessed as fold reduction in bacterial viability at 50 uM incubated for 24 hrs in presence of 1/2 MIC of polymyxin B by LB agar plate method relative to polymyxin B alone; format: functional
[23] = Toxicity in Caenorhabditis elegans assessed as effect on survival upto 200 uM incubated for 72 hrs by bright-field microscopic analysis
Pseudomonas aeruginosa [24] = experiment: Antibacterial activity against Pseudomonas aeruginosa PAO1 infected in Caenorhabditis elegans assessed as worm survival at 50 uM by bright-field microscopic analysis (reference value: 24 hrs); format: functional
Pseudomonas aeruginosa [25] = experiment: Induction of Fe3+ chelating activity in Pseudomonas aeruginosa PAO1 assessed as increase in pyoverdine production by measuring fold change at 50 uM incubated for 24 hrs by fluorescence microplate reader

In the case of `Cc1cc(=O)c(O)c(C(=O)NCCCCCCCCNc2ccnc3cc(Cl)ccc23)n1C.Cl`, the MIC (Pseudomonas aeruginosa [1]) is reported as at least 512 µM, the Activity (Pseudomonas aeruginosa [2]) is reported as “Active” and the Activity (Pseudomonas aeruginosa [3]) is reported as “inactive”. The Activity (Pseudomonas aeruginosa [4]) was “inactive”, the Activity (Pseudomonas aeruginosa [5]) was “inactive” and the Activity (Pseudomonas aeruginosa [6]) was “inactive”. The Activity (Pseudomonas aeruginosa [7]) was “inactive”, the Activity (Pseudomonas aeruginosa [8]) was “Active” and the Activity (Pseudomonas aeruginosa [9]) was “Active”. For the same molecule, the Activity (Pseudomonas aeruginosa [10]) was “Active”, the Activity (Pseudomonas aeruginosa [11]) was “Active” and the Activity (Pseudomonas aeruginosa [12]) was “Active”. The Activity (Pseudomonas aeruginosa [13]) was “Active”, the Survival (Pseudomonas aeruginosa [14]) was about 100% and the “fold change (FC)” value (Pseudomonas aeruginosa [15]) was under 10. For the same molecule, the Activity (Pseudomonas aeruginosa [16]) was “Active”, the Activity (Pseudomonas aeruginosa [17]) was “Active” and the Activity (Pseudomonas aeruginosa [18]) was “Active”. The Activity (Pseudomonas aeruginosa [19]) was “Active”, the Activity (Pseudomonas aeruginosa [20]) was “Active” and the Activity (Pseudomonas aeruginosa [21]) was “Active”. For the same molecule, the “fold change (FC)” value (Pseudomonas aeruginosa [22]) was 15, the Activity [23] was “Non-Toxic” and the Survival (Pseudomonas aeruginosa [24]) was 56 h. The fold change (FC) (Pseudomonas aeruginosa [25]) was 16.
